Results from US6355799B1, “Substituted benzene compounds, process for their preparation, and herbicidal and defoliant compositions containing them” (ISK Americas Incorporated, priority 1997, dated 2002).

Key:
Assay type in all cases: in vivo
[1] = test system: common ragweed (Ambrosia artemisizfolia L., AMBEL); assay: Pre-emerge test, greenhouse herbicide activity screening; conditions: rated 14 days after application, 0 = no damage, 100 = complete death
Method in brief: (§1)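 Sandy loam pots; pre-emerge: sown 1 d pre-spray, surface-watered after, then bottom-watered. Post-emerge: sown 8–21 d before, 2–3 leaf stage, + 0.25% v/v NIS, bottom-watered. Acetone, 187 l/ha track spray, 15–1000 g ai/ha. 0–100 injury score, day 14.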

[2] = test system: johnsongrass (Sorghum halepense, SORHA); assay: as above; conditions: rated 14 days after application, 0 = no damage, 100 = complete death
Method in brief: as §1

[3] = test system: ivyleaf morningglory (Ipomoea hederacea, IPOHE); assay: as above; conditions: rated 14 days after application, 0 = no damage, 100 = complete death
Method in brief: as §1

[4] = test system: lambsquarters (Chenopodium album, CHEAL); assay: as above; conditions: rated 14 days after application, 0 = no damage, 100 = complete death
Method in brief: as §1

[5] = test system: sicklepod (Cassia obtusifolia, CASOB); assay: as above; conditions: rated 14 days after application, 0 = no damage, 100 = complete death
Method in brief: as §1

[6] = test system: velvetleaf (Abutilon theophrasti, ABUTH); assay: as above; conditions: rated 14 days after application, 0 = no damage, 100 = complete death
Method in brief: as §1

[7] = test system: barnyardgrass (Echinochloa crus-galli, ECHCG); assay: as above; conditions: rated 14 days after application, 0 = no damage, 100 = complete death
Method in brief: as §1

[8] = test system: green foxtail (Setaria viridis, SETVI); assay: as above; conditions: rated 14 days after application, 0 = no damage, 100 = complete death
Method in brief: as §1

[9] = test system: large crabgrass (Digitaria sanguinalis, DIGSA); assay: as above; conditions: rated 14 days after application, 0 = no damage, 100 = complete death
Method in brief: as §1

[10] = test system: upland rice (Oryza sp., var. Tebonnet, RICE); assay: Pre-emerge test, crop safety; conditions: rated 14 days after application, 0 = no damage, 100 = complete death
Method in brief: (§2)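 Visual ratings on a 0-100 scale (0 no damage, 100 all plants dead) were taken at 14 days after treatment. Rates of 15-1000 g ai/ha in acetone, 187 l/ha, were sprayed onto soil one day after planting (pre-emerge) or onto 2-3 leaf plants with 0.25% v/v surfactant (post-emerge).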

[11] = test system: field corn (Zea mays L., var. Dekalb 535, CORN); assay: Pre-emerge test, crop safety; conditions: rated 14 days after application, 0 = no damage, 100 = complete death
Method in brief: as §2

[12] = test system: common ragweed (Ambrosia artemisizfolia L., AMBEL); assay: Post-emerge test, greenhouse herbicide activity screening; conditions: post-emerge, 14 days after application, rating scale 0-100
Method in brief: as §1

[13] = test system: johnsongrass (Sorghum halepense, SORHA); assay: as above; conditions: post-emerge, 14 days after application, rating scale 0-100
Method in brief: as §1

[14] = test system: redroot pigweed (Amaranthus retroflexus, AMARE); assay: as above; conditions: post-emerge, 14 days after application, rating scale 0-100
Method in brief: as §1

[15] = test system: ivyleaf morningglory (Ipomoea hederacea, IPOHE); assay: as above; conditions: post-emerge, 14 days after application, rating scale 0-100
Method in brief: as §1

[16] = test system: lambsquarters (Chenopodium album, CHEAL); assay: as above; conditions: post-emerge, 14 days after application, rating scale 0-100
Method in brief: as §1

[17] = test system: sicklepod (Cassia obtusifolia, CASOB); assay: as above; conditions: post-emerge, 14 days after application, rating scale 0-100
Method in brief: as §1

[18] = test system: velvetleaf (Abutilon theophrasti, ABUTH); assay: as above; conditions: post-emerge, 14 days after application, rating scale 0-100
Method in brief: as §1

[19] = test system: barnyardgrass (Echinochloa crus-galli, ECHCG); assay: as above; conditions: post-emerge, 14 days after application, rating scale 0-100
Method in brief: as §1

[20] = test system: green foxtail (Setaria viridis, SETVI); assay: as above; conditions: post-emerge, 14 days after application, rating scale 0-100
Method in brief: as §1

[21] = test system: large crabgrass (Digitaria sanguinalis, DIGSA); assay: as above; conditions: post-emerge, 14 days after application, rating scale 0-100
Method in brief: as §1

[22] = test system: redroot pigweed (Amaranthus retroflexus, AMARE); assay: Pre-emerge test, greenhouse herbicide activity screening; conditions: rated 14 days after application, 0 = no damage, 100 = complete death
Method in brief: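 Compounds in acetone were track-sprayed at 187 l/ha, 15–1000 g ai/ha, onto sandy loam pots. Pre-emerge seeds were sown one day before spraying, with surface watering afterwards. Post-emerge plants were at the 2–3 leaf stage and sprayed with 0.25% v/v non-ionic surfactant. Injury was rated 0–100 at 14 days.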

[23] = test system: upland rice (Oryza sp., var. Tebonnet, RICE); assay: Post-emerge test, crop safety; conditions: post-emerge, 14 days after application, rating scale 0-100
Method in brief: as §1

[24] = test system: field corn (Zea mays L., var. Dekalb 535, CORN); assay: Post-emerge test, crop safety; conditions: post-emerge, 14 days after application, rating scale 0-100
Method in brief: as §1

COc1c(Cl)cc(F)c(-n2c(=O)cc(C(F)(F)F)n(C)c2=O)c1NC(=O)c1ccc(F)cc1 [2-40]
Pre-emerge Herbicidal Activity, phytotoxicity rating (0-100), AMBEL ([1]; 63 g ai/ha): 100 | Pre-emerge Herbicidal Activity, phytotoxicity rating (0-100), AMBEL ([1]; 250 g ai/ha): 100 | Pre-emerge Herbicidal Activity, phytotoxicity rating (0-100), SORHA ([2]; 63 g ai/ha): 60 | Pre-emerge Herbicidal Activity, phytotoxicity rating (0-100), SORHA ([2]; 250 g ai/ha): 100 | Pre-emerge Herbicidal Activity, phytotoxicity rating (0-100), IPOHE ([3]; 63 g ai/ha): 90 | Pre-emerge Herbicidal Activity, phytotoxicity rating (0-100), IPOHE ([3]; 250 g ai/ha): 100 | Pre-emerge Herbicidal Activity, phytotoxicity rating (0-100), CHEAL ([4]; 63 g ai/ha): 100 | Pre-emerge Herbicidal Activity, phytotoxicity rating (0-100), CHEAL ([4]; 250 g ai/ha): 100 | Pre-emerge Herbicidal Activity, phytotoxicity rating (0-100), CASOB ([5]; 63 g ai/ha): 80 | Pre-emerge Herbicidal Activity, phytotoxicity rating (0-100), CASOB ([5]; 250 g ai/ha): 100 | Pre-emerge Herbicidal Activity, phytotoxicity rating (0-100), ABUTH ([6]; 63 g ai/ha): 100 | Pre-emerge Herbicidal Activity, phytotoxicity rating (0-100), ABUTH ([6]; 250 g ai/ha): 100 | Pre-emerge Herbicidal Activity, phytotoxicity rating (0-100), ECHCG ([7]; 63 g ai/ha): 85 | Pre-emerge Herbicidal Activity, phytotoxicity rating (0-100), ECHCG ([7]; 250 g ai/ha): 100 | Pre-emerge Herbicidal Activity, phytotoxicity rating (0-100), SETVI ([8]; 63 g ai/ha): 100 | Pre-emerge Herbicidal Activity, phytotoxicity rating (0-100), SETVI ([8]; 250 g ai/ha): 100 | Pre-emerge Herbicidal Activity, phytotoxicity rating (0-100), DIGSA ([9]; 63 g ai/ha): 90 | Pre-emerge Herbicidal Activity, phytotoxicity rating (0-100), DIGSA ([9]; 250 g ai/ha): 100 | Pre-emerge phytotoxicity rating (0-100), crop damage, RICE ([10]; 63 g ai/ha): 95 | Pre-emerge phytotoxicity rating (0-100), crop damage, RICE ([10]; 250 g ai/ha): 100 | Pre-emerge phytotoxicity rating (0-100), crop damage, CORN ([11]; 63 g ai/ha): 50 | Pre-emerge phytotoxicity rating (0-100), crop damage, CORN ([11]; 250 g ai/ha): 95 | phytotoxicity rating AMBEL ([12]; 63 g ai/ha): 80 | phytotoxicity rating AMBEL ([12]; 250 g ai/ha): 100 | phytotoxicity rating SORHA ([13]; 63 g ai/ha): 30 | phytotoxicity rating SORHA ([13]; 250 g ai/ha): 100 | phytotoxicity rating AMARE ([14]; 63 g ai/ha): 90 | phytotoxicity rating AMARE ([14]; 250 g ai/ha): 100 | phytotoxicity rating IPOHE ([15]; 63 g ai/ha): 100 | phytotoxicity rating IPOHE ([15]; 250 g ai/ha): 100 | phytotoxicity rating CHEAL ([16]; 63 g ai/ha): 80 | phytotoxicity rating CHEAL ([16]; 250 g ai/ha): 95 | phytotoxicity rating CASOB ([17]; 63 g ai/ha): 50 | phytotoxicity rating CASOB ([17]; 250 g ai/ha): 90 | phytotoxicity rating ABUTH ([18]; 63 g ai/ha): 100 | phytotoxicity rating ABUTH ([18]; 250 g ai/ha): 100 | phytotoxicity rating ECHCG ([19]; 63 g ai/ha): 0 | phytotoxicity rating ECHCG ([19]; 250 g ai/ha): 100 | phytotoxicity rating SETVI ([20]; 63 g ai/ha): 10 | phytotoxicity rating SETVI ([20]; 250 g ai/ha): 90 | phytotoxicity rating DIGSA ([21]; 63 g ai/ha): 10 | phytotoxicity rating DIGSA ([21]; 250 g ai/ha): 90 | Pre-emerge Herbicidal Activity, phytotoxicity rating (0-100), AMARE ([22]; 63 g ai/ha): 100 | Pre-emerge Herbicidal Activity, phytotoxicity rating (0-100), AMARE ([22]; 250 g ai/ha): 100 | phytotoxicity rating RICE ([23]; 63 g ai/ha): 50 | phytotoxicity rating RICE ([23]; 250 g ai/ha): 95 | phytotoxicity rating CORN ([24]; 63 g ai/ha): 40 | phytotoxicity rating CORN ([24]; 250 g ai/ha): 90
